Reference: paper PMC8386128, “Evaluation of Short-Chain Antimicrobial Peptides With Combined Antimicrobial and Anti-inflammatory Bioactivities for the Treatment of Zoonotic Skin Pathogens From Canines” (Frontiers in Microbiology, 2021)
Structures can show the parent of a compound that is named as a salt. Where two headings read alike, the source gives them in different places. No end group written: not given here.

Assays:
[1] = tested on: Microsporum gypseum MW766983; settings: 24 h
[2] = tested on: Trichophyton mentagrophytes MW766984; settings: 24 h
[3] = tested on: Staphylococcus sciuri MW767055; settings: 24 h
[4] = tested on: Staphylococcus simulans MW767052; settings: 24 h
[5] = tested on: S. pseudintermedius MW767056 biofilm; settings: for MBIC: 24 h; for MBEC: 48 h
[6] = tested on: Staphylococcus cohnii MW767053; settings: 24 h
[7] = tested on: Proteus mirabilis MW767054; settings: MW767054, 24 h
[8] = tested on: Staphylococcus haemolyticus MW767051; settings: 24 h
[9] = tested on: S. cohnii MW767053 biofilm; settings: for MBIC: 24 h; for MBEC: 48 h
[10] = tested on: M. canis MW768151 biofilm; settings: for MBIC: 24 h; for MBEC: 48 h
[11] = tested on: Microsporum canis MW768151; settings: peptide constant at 1/4 × MIC, 1 × 10^5 CFU/ml, triplicate
[12] = tested on: S. pseudintermedius MW767056; assay: Bacteriolysis analysis (culture turbidity at 600 nm); type: cell-based, Staphylococcus pseudintermedius; settings: 4× MIC, after 2.5 h, MHB, triplicate
[13] = tested on: S. pseudintermedius MW767056; assay: Calcein leakage analysis (membrane permeabilization); type: cell-based, Staphylococcus pseudintermedius; settings: 10× MIC, up to 1 h, triplicate, two independent experiments

Compound | MBC/MFC [1] [µg/mL] | MIC [1] [µg/mL] | MBC/MFC [2] [µg/mL] | MIC [2] [µg/mL] | MBC/MFC [3] [µg/mL] | MIC [3] [µg/mL] | MBC/MFC [4] [µg/mL] | MIC [4] [µg/mL] | MBIC [5] [µg/mL] | MBEC [5] [µg/mL] | MBC/MFC [6] [µg/mL] | MIC [6] [µg/mL] | MBC/MFC [7] [µg/mL] | MIC [7] [µg/mL] | MBC/MFC [8] [µg/mL] | MIC [8] [µg/mL] | MBIC [9] [µg/mL] | MBEC [9] [µg/mL] | MBIC [10] [µg/mL] | MBEC [10] [µg/mL] | other results
AAVTRRILCWFA-NH2 [Allomyrinasin] | 0.5 | 0.5 | 2 | 2 | >256 | >256 | 128 | 128 | 32 | 128 | 32 | 32 | >256 | >256 | >256 | >256 | 128 | 256 | 2 | 8 | 
VAEARQGSFSY [Pinipesin] | 2 | 2 | 0.5 | 0.5 | >256 | >256 | 128 | 128 | >256 | >256 | >256 | >256 | >256 | >256 | >256 | >256 | >256 | >256 | 4 | 16 | 
CN(C/C=C/C#CC(C)(C)C)Cc1cccc2ccccc12 [Terbinafine, terbinafine hydrochloride] |  |  |  |  |  |  |  |  |  |  |  |  |  |  |  |  |  |  |  |  | FIC index ([11]; in combination with Allomyrinasin): 0.375; FIC index ([11]; in combination with Andricin B): 0.50
ITSISLCTPGCKTGALMGCNMKTATCHCSIHVSK [Nisin, well-known membrane-perturbing peptide, positive control] |  |  |  |  |  |  |  |  |  |  |  |  |  |  |  |  |  |  |  |  | decrease in absorbance (turbidity, OD600) [12]: > 60%; calcein leakage (decrease in fluorescence intensity) [13]: at least 95%
